Patent US8445492B2, “Method for inhibiting growth of cancer cells and cell telomere and diseases of cell proliferation by using heteroannelated anthraquinone derivative compounds” (National Defense Medical Center, priority 2008, dated 2013)

Experiments:
Assay type in all cases: cell-based
MDA-MB-231/ATCC = assay: NCI DTP in-vitro dose response, Breast Cancer; details: MDA-MB-231/ATCC
MCF7 = assay: NCI DTP in-vitro dose response, Breast Cancer
MDA-MB-435 = assay: NCI DTP in-vitro dose response, Breast Cancer
T-47D = assay: NCI DTP in-vitro dose response, Breast Cancer; details: T-47D
BT-549 = assay: NCI DTP in-vitro dose response, Breast Cancer
NCI/ADR-RES = assay: NCI DTP in-vitro dose response, Breast Cancer; details: NCI/ADR-RES
HS 578T = assay: NCI DTP in-vitro dose response, Breast Cancer; details: HS 578T
UACC-257 = assay: NCI DTP in-vitro dose response, Melanoma
SK-MEL-5 = assay: NCI DTP in-vitro dose response, Melanoma
M14 = assay: NCI DTP in-vitro dose response, Melanoma
SK-MEL-28 = assay: NCI DTP in-vitro dose response, Melanoma
MALME-3M = assay: NCI DTP in-vitro dose response, Melanoma
LOX IMVI = assay: NCI DTP in-vitro dose response, Melanoma
UACC-62 = assay: NCI DTP in-vitro dose response, Melanoma
[1] = read-out: LC50 (the source's name)

For `O=C1c2ccccc2C(=O)c2c1ccc1nccnc21` [TABLE 5-9], the TGI (MDA-MB-231/ATCC) was greater than 1.00E−4, the “Percent Growth” value (MDA-MB-231/ATCC; Log10 Concentration −4.0) was 14% and the “Percent Growth” value (MDA-MB-231/ATCC; Log10 Concentration −5.0) was 64%. For the same compound, the “Percent Growth” value (MDA-MB-231/ATCC; Log10 Concentration −6.0) was 85%, the “Percent Growth” value (MDA-MB-231/ATCC; Log10 Concentration −7.0) was 88% and the “Percent Growth” value (MDA-MB-231/ATCC; Log10 Concentration −8.0) was 100%. It also gave a GI50 (MDA-MB-231/ATCC; read-out: GI50) of 19.1 µM, a CC50 (MDA-MB-231/ATCC; [1]) greater than 100 µM and a TGI (MCF7; MCF7) of 2.98E−5. The “Percent Growth” value (MCF7; MCF7, Log10 Concentration −4.0) was −29%, the “Percent Growth” value (MCF7; MCF7, Log10 Concentration −5.0) was 27% and the “Percent Growth” value (MCF7; MCF7, Log10 Concentration −6.0) was 45%. The “Percent Growth” value (MCF7; MCF7, Log10 Concentration −7.0) was 80%, the “Percent Growth” value (MCF7; MCF7, Log10 Concentration −8.0) was 81% and the GI50 (MCF7; MCF7, read-out: GI50) was 0.722 µM. The CC50 (MCF7; MCF7, read-out: LC50 (the source's name)) was greater than 100 µM, the TGI (MDA-MB-435; MDA-MB-435) was 2.37E−5 and the “Percent Growth” value (MDA-MB-435; MDA-MB-435, Log10 Concentration −4.0) was −95%. For the same compound, the “Percent Growth” value (MDA-MB-435; MDA-MB-435, Log10 Concentration −5.0) was 57%, the “Percent Growth” value (MDA-MB-435; MDA-MB-435, Log10 Concentration −6.0) was 101% and the “Percent Growth” value (MDA-MB-435; MDA-MB-435, Log10 Concentration −7.0) was 97%. For the same compound, the “Percent Growth” value (MDA-MB-435; MDA-MB-435, Log10 Concentration −8.0) was 101%, the GI50 (MDA-MB-435; MDA-MB-435, read-out: GI50) was 11.1 µM and the CC50 (MDA-MB-435; MDA-MB-435, read-out: LC50 (the source's name)) was 50.4 µM. The TGI (T-47D) was 7.51E−5, the “Percent Growth” value (T-47D; Log10 Concentration −4.0) was −8% and the “Percent Growth” value (T-47D; Log10 Concentration −5.0) was 56%. For the same compound, the “Percent Growth” value (T-47D; Log10 Concentration −6.0) was 71%, the “Percent Growth” value (T-47D; Log10 Concentration −7.0) was 80% and the “Percent Growth” value (T-47D; Log10 Concentration −8.0) was 85%. For the same compound, the GI50 (T-47D; read-out: GI50) was 12.6 µM, the CC50 (T-47D; [1]) was greater than 100 µM and the TGI (BT-549; BT-549) was 9.35E−5. For the same compound, the “Percent Growth” value (BT-549; BT-549, Log10 Concentration −4.0) was −2%, the “Percent Growth” value (BT-549; BT-549, Log10 Concentration −5.0) was 55% and the “Percent Growth” value (BT-549; BT-549, Log10 Concentration −6.0) was 83%. The “Percent Growth” value (BT-549; BT-549, Log10 Concentration −7.0) was 85%, the “Percent Growth” value (BT-549; BT-549, Log10 Concentration −8.0) was 95% and the GI50 (BT-549; BT-549, read-out: GI50) was 12.2 µM. For the same compound, the CC50 (BT-549; BT-549, read-out: LC50 (the source's name)) was greater than 100 µM, the TGI (NCI/ADR-RES) was greater than 1.00E−4 and the “Percent Growth” value (NCI/ADR-RES; Log10 Concentration −4.0) was 8%. The “Percent Growth” value (NCI/ADR-RES; Log10 Concentration −5.0) was 38%, the “Percent Growth” value (NCI/ADR-RES; Log10 Concentration −6.0) was 87% and the “Percent Growth” value (NCI/ADR-RES; Log10 Concentration −7.0) was 92%. The “Percent Growth” value (NCI/ADR-RES; Log10 Concentration −8.0) was 95%, the GI50 (NCI/ADR-RES; read-out: GI50) was 5.68 µM and the CC50 (NCI/ADR-RES; [1]) was greater than 100 µM. The TGI (HS 578T) was 9.14E−5, the “Percent Growth” value (HS 578T; Log10 Concentration −4.0) was −2% and the “Percent Growth” value (HS 578T; Log10 Concentration −5.0) was 59%. For the same compound, the “Percent Growth” value (HS 578T; Log10 Concentration −6.0) was 81%, the “Percent Growth” value (HS 578T; Log10 Concentration −7.0) was 90% and the “Percent Growth” value (HS 578T; Log10 Concentration −8.0) was 88%. It also gave a GI50 (HS 578T; read-out: GI50) of 14.1 µM and a CC50 (HS 578T; [1]) greater than 100 µM.

For `CCc1nc2ccc3c(c2[nH]1)C(=O)c1ccccc1C3=O` [TABLE 4-5], the CC50 (UACC-257) was greater than 100 µM, the TGI (UACC-257) was greater than 1.00E−4 and the “Percent Growth” value (UACC-257; Log10 Concentration −4.0) was 18%. The “Percent Growth” value (UACC-257; Log10 Concentration −5.0) was 66%, the “Percent Growth” value (UACC-257; Log10 Concentration −6.0) was 96% and the “Percent Growth” value (UACC-257; Log10 Concentration −7.0) was 84%. The “Percent Growth” value (UACC-257; Log10 Concentration −8.0) was 84%, the GI50 (UACC-257; read-out: GI50) was 21.6 µM and the CC50 (SK-MEL-5) was greater than 100 µM. The TGI (SK-MEL-5) was 8.36E−6, the “Percent Growth” value (SK-MEL-5; Log10 Concentration −4.0) was −19% and the “Percent Growth” value (SK-MEL-5; Log10 Concentration −5.0) was −5%. The “Percent Growth” value (SK-MEL-5; Log10 Concentration −6.0) was 59%, the “Percent Growth” value (SK-MEL-5; Log10 Concentration −7.0) was 42% and the “Percent Growth” value (SK-MEL-5; Log10 Concentration −8.0) was 44%. The CC50 (M14) was greater than 100 µM, the TGI (M14) was greater than 1.00E−4 and the “Percent Growth” value (M14; Log10 Concentration −4.0) was 25%. The “Percent Growth” value (M14; Log10 Concentration −5.0) was 50%, the “Percent Growth” value (M14; Log10 Concentration −6.0) was 78% and the “Percent Growth” value (M14; Log10 Concentration −7.0) was 95%. The “Percent Growth” value (M14; Log10 Concentration −8.0) was 88%, the GI50 (M14; read-out: GI50) was 10.2 µM and the CC50 (SK-MEL-28) was greater than 100 µM. The TGI (SK-MEL-28) was 6.36E−5, the “Percent Growth” value (SK-MEL-28; Log10 Concentration −4.0) was −12% and the “Percent Growth” value (SK-MEL-28; Log10 Concentration −5.0) was 48%. For the same compound, the “Percent Growth” value (SK-MEL-28; Log10 Concentration −6.0) was 79%, the “Percent Growth” value (SK-MEL-28; Log10 Concentration −7.0) was 84% and the “Percent Growth” value (SK-MEL-28; Log10 Concentration −8.0) was 89%. For the same compound, the GI50 (SK-MEL-28; read-out: GI50) was 8.58 µM, the CC50 (MALME-3M) was greater than 100 µM and the TGI (MALME-3M) was 8.69E−5. The “Percent Growth” value (MALME-3M; Log10 Concentration −4.0) was −2%, the “Percent Growth” value (MALME-3M; Log10 Concentration −5.0) was 26% and the “Percent Growth” value (MALME-3M; Log10 Concentration −6.0) was 83%. For the same compound, the “Percent Growth” value (MALME-3M; Log10 Concentration −7.0) was 84%, the “Percent Growth” value (MALME-3M; Log10 Concentration −8.0) was 87% and the GI50 (MALME-3M; read-out: GI50) was 3.75 µM. For the same compound, the CC50 (LOX IMVI) was greater than 100 µM, the TGI (LOX IMVI) was greater than 1.00E−4 and the “Percent Growth” value (LOX IMVI; Log10 Concentration −4.0) was 10%. For the same compound, the “Percent Growth” value (LOX IMVI; Log10 Concentration −5.0) was 33%, the “Percent Growth” value (LOX IMVI; Log10 Concentration −6.0) was 83% and the “Percent Growth” value (LOX IMVI; Log10 Concentration −7.0) was 91%. For the same compound, the “Percent Growth” value (LOX IMVI; Log10 Concentration −8.0) was 101%, the GI50 (LOX IMVI; read-out: GI50) was 4.61 µM and the CC50 (UACC-62) was greater than 100 µM. The TGI (UACC-62) was greater than 1.00E−4, the “Percent Growth” value (UACC-62; Log10 Concentration −4.0) was 26% and the “Percent Growth” value (UACC-62; Log10 Concentration −5.0) was 41%. For the same compound, the “Percent Growth” value (UACC-62; Log10 Concentration −6.0) was 85%, the “Percent Growth” value (UACC-62; Log10 Concentration −7.0) was 92% and the “Percent Growth” value (UACC-62; Log10 Concentration −8.0) was 83%. The GI50 (UACC-62; read-out: GI50) was 6.18 µM.
